Values joined by “and” are separate entries in the source; they are usually repeats but may differ in a detail not shown here. Equal values may be shown once. Toxic doses and inconclusive results are not listed. Positions of bridges follow the written chain, without caps; N, C: chain ends. Non-standard residues stand in square brackets, D forms with d. Residues, ends and D or L forms follow the SMILES beside them. Chains are numbered I, II in the order given. *: point of attachment. Quinoxaline2carbonyl = O=C(c1cnc2ccccc2n1)*; NMeV = CN[CH](C(=O)O)C(C)C; NMeC = CN[CH](CS)C(=O)O
Tested on: BDF1 mice, P388 leukemia ip, median survival T/C
Assay: NCI In Vivo Anticancer Drug Screen. Data for tumor model P388 Leukemia (intraperitoneal) in B6D2F1 (BDF1) mice
Settings: endpoint: median survival time, higher = longer survival
Procedure, shortened: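 Steps: implant the tumour, treat one group with compound and another with vehicle, record survival, then divide treated by control.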

[1] = dose: 20.0 mg/kg/injection, schedule: Q01DX010 (ip), vehicle: saline
[2] = dose: 50.0 mg/kg/injection, schedule: Q01DX009 (ip), vehicle: saline with Tween-80
[3] = dose: 100.0 mg/kg/injection, schedule: Q01DX009 (ip), vehicle: saline with Tween-80
[4] = dose: 200.0 mg/kg/injection, schedule: Q01DX009 (ip), vehicle: saline with Tween-80
[5] = dose: 100.0 mg/kg/injection, schedule: Q04DX003 (ip), vehicle: saline with Tween-80
[6] = dose: 200.0 mg/kg/injection, schedule: Q04DX003 (ip), vehicle: saline with Tween-80
[7] = dose: 3.12 mg/kg/injection, schedule: Q01DX009 (ip), vehicle: Klucel (hydroxypropylcellulose) (HPC)
[8] = dose: 12.5 mg/kg/injection, schedule: Q01DX009 (ip), vehicle: Klucel (hydroxypropylcellulose) (HPC)
[9] = dose: 6.25 mg/kg/injection, schedule: Q01DX009 (ip), vehicle: Klucel (hydroxypropylcellulose) (HPC)
[10] = dose: 25.0 mg/kg/injection, schedule: Q01DX009 (ip), vehicle: Klucel (hydroxypropylcellulose) (HPC)
[11] = dose: 50.0 mg/kg/injection, schedule: Q01DX009 (ip), vehicle: other
[12] = dose: 100.0 mg/kg/injection, schedule: Q04DX003 (ip), vehicle: Klucel (hydroxypropylcellulose) (HPC)
[13] = dose: 200.0 mg/kg/injection, schedule: Q04DX003 (ip), vehicle: Klucel (hydroxypropylcellulose) (HPC)
[14] = dose: 400.0 mg/kg/injection, schedule: Q04DX003 (ip), vehicle: Klucel (hydroxypropylcellulose) (HPC)

Compound: CC1NC(=O)C(NC(=O)c2cnc3ccccc3n2)COC(=O)C(C(C)C)N(C)C(=O)C2CSSCC(C(=O)N(C)C(C(C)C)C(=O)OCC(NC(=O)c3cnc4ccccc4n3)C(=O)NC(C)C(=O)N2C)N(C)C1=O (centres undefined) (I: Quinoxaline2carbonyl-SA[NMeC][NMeV] / II: Quinoxaline2carbonyl-SA[NMeC][NMeV]; ester I:1-II:C, I:C-II:1; disulfide I:3-II:3; configuration not given here)
- T/C (dose: 11.0 micrograms/kg/injection, schedule: Q01DX009 (ip), vehicle: saline): 124 % of control
- T/C (dose: 22.5 micrograms/kg/injection, schedule: Q01DX009 (ip), vehicle: saline): 115 % of control
- T/C (dose: 45.0 micrograms/kg/injection, schedule: Q01DX009 (ip), vehicle: saline): 113 % of control
- T/C (dose: 90.0 micrograms/kg/injection, schedule: Q01DX009 (ip), vehicle: saline): 200 % of control

Compound: CCCCCCCCCCCC[S+](C)C
- T/C (dose: 10.0 mg/kg/injection, schedule: Q01DX010 (ip), vehicle: saline): 116 % of control
- T/C (dose: 10.0 mg/kg/injection, schedule: Q04DX003 (ip), vehicle: saline): 120 % of control
- T/C [1]: 112 % of control
- T/C (dose: 20.0 mg/kg/injection, schedule: Q04DX003 (ip), vehicle: saline): 120 % of control

Compound: O=C1Nc2ccc(Br)cc2C1=Nc1ccc2c(c1)OCO2
- T/C [2]: 113 % of control
- T/C [3]: 111 % of control
- T/C [4]: 108 % of control
- T/C (dose: 400.0 mg/kg/injection, schedule: Q01DX009 (ip), vehicle: saline with Tween-80): 111 % of control

Compound: Cn1nc(NC(=O)C(F)(F)F)c2ncc(-c3ccccc3)nc21
- T/C (dose: 50.0 mg/kg/injection, schedule: Q04DX003 (ip), vehicle: saline with Tween-80): 105 % of control
- T/C [5]: 100 % of control
- T/C [6]: 100 % of control

Compound: Cc1ncnc2c1CCC2
- T/C [2]: 97 % of control
- T/C [3]: 111 % of control
- T/C [5]: 109 % of control
- T/C [4]: 87 % of control
- T/C [6]: 95 % of control

Compound: CCNc1ccc(/C=C2\C=Cc3ccccc32)cc1
- T/C (dose: 0.39 mg/kg/injection, schedule: Q01DX009 (ip), vehicle: Klucel (hydroxypropylcellulose) (HPC)): 100 % of control
- T/C (dose: 0.78 mg/kg/injection, schedule: Q01DX009 (ip), vehicle: Klucel (hydroxypropylcellulose) (HPC)): 105 % of control
- T/C (dose: 1.56 mg/kg/injection, schedule: Q01DX009 (ip), vehicle: Klucel (hydroxypropylcellulose) (HPC)): 110 % of control
- T/C [7]: 90 % of control
- T/C (dose: 6.25 mg/kg/injection, schedule: Q01DX009 (ip), vehicle: olive oil, sesame oil, peanut oil): 113 % of control
- T/C [8]: 95 % of control
- T/C (dose: 12.5 mg/kg/injection, schedule: Q01DX009 (ip), vehicle: olive oil, sesame oil, peanut oil): 118 % of control
- T/C (dose: 25.0 mg/kg/injection, schedule: Q01DX009 (ip), vehicle: olive oil, sesame oil, peanut oil): 118 % of control
- T/C (dose: 50.0 mg/kg/injection, schedule: Q01DX009 (ip), vehicle: olive oil, sesame oil, peanut oil): 100 % of control

Compound: CCOC(=S)SCC(=O)Nc1ccc(Br)cc1
- T/C (dose: 15.0 mg/kg/injection, schedule: Q01DX009 (ip), vehicle: saline with Tween-80): 93 % of control
- T/C (dose: 30.0 mg/kg/injection, schedule: Q01DX009 (ip), vehicle: saline with Tween-80): 96 % of control
- T/C (dose: 60.0 mg/kg/injection, schedule: Q01DX009 (ip), vehicle: saline with Tween-80): 98 % of control

Compound: CC[CH2][Pb]([CH2]CC)([CH2]CC)[N]1C(=O)c2ccccc2C1=O
- T/C [7]: 108 % of control and 123 % of control
- T/C [9]: 110 % of control and 123 % of control
- T/C [8]: 123 % of control

Compound: CC(=O)N(C)c1ccc(N)cc1
- T/C (dose: 100.0 mg/kg/injection, schedule: Q04DX003 (ip), vehicle: saline): 100 % of control
- T/C (dose: 200.0 mg/kg/injection, schedule: Q04DX003 (ip), vehicle: saline): 100 % of control
- T/C (dose: 400.0 mg/kg/injection, schedule: Q04DX003 (ip), vehicle: saline): 109 % of control

Compound: ClCC#Cc1ccccc1
- T/C [8]: 109 % of control
- T/C [10]: 86 % of control
- T/C (dose: 50.0 mg/kg/injection, schedule: Q01DX009 (ip), vehicle: Klucel (hydroxypropylcellulose) (HPC)): 100 % of control

Compound: COc1ccc(OC)c(C(=O)C=C(C(F)(F)F)C(F)(F)F)c1
- T/C (dose: 33.0 mg/kg/injection, schedule: Q01DX009 (ip), vehicle: other): 109 % of control
- T/C [11]: 113 % of control
- T/C (dose: 75.0 mg/kg/injection, schedule: Q01DX009 (ip), vehicle: other): 122 % of control

Compound: COc1cccc2c1C(=O)c1c(O)c3c(c(O)c1C2=O)C[C@@](O)(/C(C)=N/NC(=O)c1ccc(Cl)c(Cl)c1)C[C@@H]3OC1CC(N)C(O)C(C)O1 (some centres undefined)
- T/C (dose: 0.5 mg/kg/injection, schedule: Q01DX009 (ip), vehicle: water): 202 % of control
- T/C (dose: 1.0 mg/kg/injection, schedule: Q01DX009 (ip), vehicle: water): 234 % of control and 156 % of control
- T/C (dose: 2.0 mg/kg/injection, schedule: Q01DX009 (ip), vehicle: water): 295 % of control and 186 % of control
- T/C (dose: 4.0 mg/kg/injection, schedule: Q01DX009 (ip), vehicle: water): 295 % of control and 186 % of control

Compound: O=C(O)/C=C\C(=O)Nc1ccccc1NC(=O)/C=C/C(=O)O
- T/C (dose: 100.0 mg/kg/injection, schedule: Q01DX009 (ip), vehicle: saline): 104 % of control
- T/C (dose: 200.0 mg/kg/injection, schedule: Q01DX009 (ip), vehicle: saline): 113 % of control
- T/C (dose: 400.0 mg/kg/injection, schedule: Q01DX009 (ip), vehicle: saline): 109 % of control

Compound: CC[n+]1c(-c2ccccc2)c2cc(N)ccc2c2ccc(N)cc21
- T/C (dose: 1.56 mg/kg/injection, schedule: Q01DX009 (ip), vehicle: saline): 151 % of control
- T/C (dose: 3.13 mg/kg/injection, schedule: Q01DX009 (ip), vehicle: saline): 178 % of control
- T/C (dose: 5.0 mg/kg/injection, schedule: Q01DX010 (ip), vehicle: saline): 155 % of control
- T/C (dose: 5.3 mg/kg/injection, schedule: Q01DX009 (ip), vehicle: saline): 208 % of control
- T/C (dose: 6.25 mg/kg/injection, schedule: Q01DX009 (ip), vehicle: saline): 163 % of control
- T/C (dose: 6.25 mg/kg/injection, schedule: Q01DX009 (ip), vehicle: water): 163 % of control
- T/C (dose: 8.0 mg/kg/injection, schedule: Q01DX009 (ip), vehicle: saline): 198 % of control and 222 % of control
- T/C (dose: 12.0 mg/kg/injection, schedule: Q01DX009 (ip), vehicle: saline): 227 % of control and 196 % of control
- T/C (dose: 12.5 mg/kg/injection, schedule: Q01DX009 (ip), vehicle: saline with Tween-80): 113 % of control
- T/C (dose: 12.5 mg/kg/injection, schedule: Q01DX009 (ip), vehicle: water): 113 % of control
- T/C [1]: 114 % of control and 120 % of control
- T/C (dose: 27.0 mg/kg/injection, schedule: Q01DX009 (ip), vehicle: saline): 97 % of control

Compound: CCCCCCCCCCCCCCC(F)C(=O)O (centres undefined)
- T/C [9]: 100 % of control
- T/C [8]: 91 % of control
- T/C [10]: 91 % of control and 95 % of control
- T/C [12]: 95 % of control

Compound: CCC(=O)c1cc(O)ccc1O
- T/C [11]: 106 % of control
- T/C (dose: 100.0 mg/kg/injection, schedule: Q01DX009 (ip), vehicle: other): 97 % of control

Compound: CC1=CC=CC(C)(Cc2ccc(-c3ccc(CC4(C)C=CC=C(C)C4=O)cc3)cc2)C1=O (centres undefined)
- T/C (dose: 25.0 mg/kg/injection, schedule: Q01DX001 (ip), vehicle: saline with Tween-80): 95 % of control
- T/C (dose: 50.0 mg/kg/injection, schedule: Q01DX001 (ip), vehicle: saline with Tween-80): 95 % of control
- T/C (dose: 100.0 mg/kg/injection, schedule: Q01DX001 (ip), vehicle: saline with Tween-80): 90 % of control

Compound: CC(C)(Cl)CNC(=O)c1ccc([N+](=O)[O-])cc1
- T/C [12]: 91 % of control
- T/C [13]: 104 % of control
- T/C [14]: 100 % of control

Compound: CCCCCCCCCCCCc1c(C(OC)OC)[nH]c(=S)[nH]c1=O
- T/C (dose: 100.0 mg/kg/injection, schedule: Q01DX009 (ip), vehicle: Klucel (hydroxypropylcellulose) (HPC)): 107 % of control
- T/C [12]: 104 % of control
- T/C (dose: 200.0 mg/kg/injection, schedule: Q01DX009 (ip), vehicle: Klucel (hydroxypropylcellulose) (HPC)): 88 % of control
- T/C [13]: 100 % of control
- T/C (dose: 400.0 mg/kg/injection, schedule: Q01DX009 (ip), vehicle: Klucel (hydroxypropylcellulose) (HPC)): 96 % of control
- T/C [14]: 100 % of control

Compound: IC12CC3CC(CC(C3)C1)C2
- T/C [5]: 90 % of control
- T/C [6]: 90 % of control
- T/C (dose: 400.0 mg/kg/injection, schedule: Q04DX003 (ip), vehicle: saline with Tween-80): 86 % of control

From PubChem BioAssay AID328 (DTP/NCI, 2004)
